Drawing on patent publication US12286423B2, “Antiviral 1,3-di-oxo-indene compounds” (Novartis AG, priority 2020, dated 2025), this text covers EC50 and CC50 for 10 molecules.

Common to all, as to type: cell-based
One data set relates to HRV A16. As to the kind of experiment: HRV A16 CPE inhibition assay. To be noted: Human rhinovirus sp.; HRV A16, cytopathic effect inhibition. The procedure:
(§1) Bioactivity of the Compounds of the Invention was Determined Using the Following Methods. Determination of Drug Efficacy Against Picornaviruses Using Cytopathic Effect (CPE) Inhibition Assay
(§2) In the assay, HeLa (human cervical cancer cells), MRC-5 (human fetal lung fibroblast cells), and RD cells (derived from human rhabdomyosarcoma) were employed. For comparison, ribavirin (Riv), Pleconaril (pleco), and […] (BTA) were used as controls. Reagents were dissolved at a concentration of 10-40 mg/ml in 100% dimethyl sulfoxide (DMSO). Water-soluble reagents were dissolved in PBS (−) solution and stored at −20° C. On the day of the experiment, they were used in 3 fold to 5 fold concentrations in such a manner that the concentration of dimethyl sulfoxide in each well was between 0.5% and 1%.
(§3) Pharmaceutical efficacy was determined using a virus-induced cytopathic effect (CPE) inhibition assay. In this regard, after cells suitable for viruses were grown in 96-well plates, dilutions of viruses in DME supplemented with 2% FBS (DME/2% FBS) or MEM supplemented with 2% FBS (MEM/2% FBS) were inoculated in an amount of […] with a concentration corresponding to 100 CCID50 (50% cell culture infective dose) into each well of the plates, and incubated for 30 min-1 hr at 33° C. or 37° C. to allow the viruses to adsorb onto the cells. The culture medium was removed before aliquots of drug dilutions with various concentrations were added in an amount of 100 μl to each well. While HRV (human rhinovirus) was grown at 33° C., the other viruses were incubated in a 37° C. CO2 incubator for 2-3 days. Alternatively, the cells were cultured for 2-3 days without removal of the medium after they were added with 50 μl of each drug dilution having a 2-fold higher concentration and then with 50 μl of the virus dilution. Viruses were incubated in host HeLa cells at 37° C. for 2-3 days in DME/2% or MEM/2% FBS.
(§4) For HeLa cells, the drugs were measured for EC50 (50% maximal effective concentration), which is the concentration of a drug inducing a response halfway between the baseline and maximum, using an MTT assay. With regard to RD and MRC-5 cells, CPE was determined using FDA (Fluorescein diacetate) or MTT. In order to determine the effect of drug toxicity on efficacy results, at the time of inoculation with the virus, mock-infection was also included. A virus-free medium was added to a cell culture, which was then subjected to the same treatment as the mock-infected cells inoculated with the virus. That is, the medium was removed after one hour of incubation, and dilutions of drugs in the medium were added once more. Following incubation for 2-3 days, the cells were observed under a microscope and the drugs were determined for CC50 (50% cytotoxic concentration) at which 50% of the cells were killed, using an MTT assay in which counts of viable cells in mock-infected wells containing drugs were compared to those of viable cells in control wells containing no drugs. In an FDA hydrolysis assay, FDA was added to each well after removal of the medium, and incubated for 20-30 min before fluorescence intensity was measured using a spectrofluorometer to determine CPE in the same manner as in MTT.
(§5) In addition, antiviral effects can be calculated using Mathematical Formula 2 below: Antiviral Effect=[A(Drug/Virus)−A(Virus Control)/A(Cell control)−A(Virus Control)]
(§6) If the survival rate is 100%, its antiviral effect is 100% whereas if the survival rate is 0%, its antiviral effect is none. […]
(§7) Specifically, cells grown to confluence in 96-well plates were infected with 100 50% cell culture infected doses (CCID50) of virus. After an adsorption period of 2 hrs at 37° C., the virus was removed and serial dilutions of the compounds were added. […] After removal of the medium, 90 μl of a culture medium and 10 μl of MTS-phenazine methosulfate (Promega, Leiden, The Netherlands) were added to each well. […]
(Protection from cytopathic effect is a common read-out in antiviral testing.)

The next data set has as its system HRV A29. As to the kind of experiment: HRV A29 CPE inhibition assay. The settings on record: Human rhinovirus sp.; HRV A29, cytopathic effect inhibition. The procedure:
as §1, §2, §3, §4, §5, §6, §7

For the next data set, the system named is C15_C3 REPLICON
As to the kind of experiment: C15_C3 replicon assay.

Another data set concerns HRV B14. As to the kind of experiment: HRV B14 CPE inhibition assay. The settings on record: Human rhinovirus sp.; HRV B14, cytopathic effect inhibition. The procedure:
as §1, §2, §3, §4, §5, §6, §7

Data set [1] in a line: Cytotoxicity (CC50) in mock-infected cells, MTT assay. To be noted: human, HeLa cells (mock-infected), 50% cytotoxic concentration, read-out: CYTOTOX (CC50 μM). The procedure: as §4
That is, the survival rate (% survival) of mock-infected cells for cytotoxicity measurement was calculated using the Mathematical Formula 1 below: Cell Drug=Survival by [A(Drug)−A(Background solution)/A(Cell control)−A(Background×100% Solution)]
While 100% cell survival means no cytotoxicity of the drug, the highest cytotoxicity is reflected by 0% cell survival. The 50% cytotoxic concentration was defined as the concentration required to reduce the cell number by 50%. This concentration of the drug is represented as CC50. Higher values mean lower cytotoxicity. […]
In Mathematical Formulae 3 and 4 above, • OD (CC) represents the OD of the background cell culture that is neither induced by a virus nor treated by chemical, • OD (VC) represents the OD of the control cell culture that is induced by a virus but not treated by chemical, • OD (Virus+Compound) represents the OD of the cell culture infected by a virus that has been treated with a concentrated compound, • OD (Compound) represents the OD of the cell culture that has been treated with a concentrated compound only, and • OD (Blank) represents the OD of the well to which only the cell culture has been added.
The effective concentration (EC50) represents the concentration of a drug at which 50% of cells are allowed to survive by CPE of an induced virus, and the cytotoxicity concentration (CC50) represents the concentration of a drug at which a compound has killed 50% of cells, and they were calculated by the logarithmic interpolation.

In another data set the test system is HRV A1B. As to the kind of experiment: HRV A1B CPE inhibition assay. To be noted: Human rhinovirus sp., cytopathic effect inhibition, read-out: HRV A1B_CPE (EC50 μM). The procedure: as §1, §2, §3, §4, §5, §6, §7

As to `Cc1cc(S(C)(=O)=O)[nH]c1C(=O)NC12C(=O)c3c(N)cccc3C1(O)Oc1cc(C3C[C@H]3C)ccc12` (stereo in doubt) [Example 21, N-(1-amino-4b-hydroxy-7-((1S,2R)-2-methylcyclopropyl)-10-oxo-4b,10-dihydro-9bH-indeno[1,2-b]benzofuran-9b-yl)-3-methyl-5-(methylsulfonyl)-1H-pyrrole-2-carboxamide], the concentration giving a half-maximal response (EC50) (in general, the concentration at which the effect is half-maximal) in the data set on HRV A16 was 0.026 µM; in the data set on HRV A29, 0.074 µM; in the data set with C15_C3 REPLICON, 2.91 µM; with HRV B14 it was 0.016 µM; with HRV A1B, 0.07 µM. The CC50 (usually the concentration that lowers cell viability or growth by half) in data set [1] turned out to be 37.3 µM.
With `Cc1c(C(=O)N[C@]23C(=O)c4c(N)cccc4[C@@]2(O)Oc2cc([C@H](C)C4CC4)ccc23)[nH]c(=O)n1C` [Example 22, N-((4bR,9bR)-1-amino-7-((R)-1-cyclopropylethyl)-4b-hydroxy-10-oxo-4b,10-dihydro-9bH-indeno[1,2-b]benzofuran-9b-yl)-1,5-dimethyl-2-oxo-2,3-dihydro-1H-imidazole-4-carboxamide], the EC50 was 0.063 µM in the data set on HRV A16; 0.023 µM in the data set on HRV A29; 1.89 µM in the data set on C15_C3 REPLICON; 0.016 µM in the data set on HRV B14; 0.041 µM with HRV A1B. Also, in data set [1], the CC50 amounted to 34.9 µM.
Consider `Cc1c(C(=O)N[C@]23C(=O)c4c(N)cccc4[C@@]2(O)Oc2cc([C@@H](C)C4CC4)ccc23)[nH]c(=O)n1C` [Example 18, N-((4bR,9bR)-1-amino-7-((S)-1-cyclopropylethyl)-4b-hydroxy-10-oxo-4b,10-dihydro-9bH-indeno[1,2-b]benzofuran-9b-yl)-1,5-dimethyl-2-oxo-2,3-dihydro-1H-imidazole-4-carboxamide], for which the EC50 stood at 0.05 µM in the data set on HRV A16, 0.016 µM with HRV A29, 1.65 µM in the data set with C15_C3 REPLICON and 0.018 µM with HRV A1B. Moreover, the CC50 in data set [1] was determined as 31.8 µM.
As to `Cc1c(S(C)(=O)=O)c[nH]c1C(=O)NC12C(=O)c3c(N)cccc3C1(O)Oc1cc([C@H]3C[C@H]3C)ccc12` (stereo partly drawn) [Example 27, N-(1-amino-4b-hydroxy-7-((1S,2R)-2-methylcyclopropyl)-10-oxo-4b,10-dihydro-9bH-indeno[1,2-b]benzofuran-9b-yl)-3-methyl-4-(methylsulfonyl)-1H-pyrrole-2-carboxamide], the concentration for a half-maximal effect (EC50) came to 0.084 µM in the data set on HRV A16; 0.079 µM in the data set with HRV A29; 0.705 µM in the data set on C15_C3 REPLICON; 0.016 µM in the data set with HRV B14; 0.02 µM in the data set with HRV A1B. Also, the CC50 in data set [1] was 40.4 µM.
As to `Cc1cc(S(=O)(=O)N2CCN(C)CC2)[nH]c1C(=O)N[C@]12C(=O)c3c(N)cccc3[C@@]1(O)Oc1cc(OC(C)C)ccc12` (single isomer, unassigned) [Example 19], the EC50 stood at 0.022 µM in the data set on HRV A16, 0.046 µM with HRV A29, 0.876 µM in the data set with C15_C3 REPLICON and 0.016 µM in the data set with HRV A1B. The CC50 in data set [1] is 48.3 µM.
With `C[C@@H](c1ccc2c(c1)O[C@]1(O)c3cccc(N)c3C(=O)[C@]21NC(=O)CN1CCC1)C1CC1` [Example 17, N-((4bR,9bR)-1-amino-7-((R)-1-cyclopropylethyl)-4b-hydroxy-10-oxo-4b,10-dihydro-9bH-indeno[1,2-b]benzofuran-9b-yl)-2-(azetidin-1-yl)acetamide], the EC50 was 0.07 µM with HRV A16; 0.018 µM in the data set with HRV A29; 1.36 µM with C15_C3 REPLICON; 0.016 µM with HRV B14; 0.016 µM with HRV A1B. Moreover, in data set [1], the CC50 is 24.5 µM.
Turning to `C[C@@H](c1ccc2c(c1)O[C@]1(O)c3cccc(N)c3C(=O)[C@]21NC(=O)c1cccc(O)n1)C1CC1` [Example 8, N-((4bR,9bR)-1-amino-7-((R)-1-cyclopropylethyl)-4b-hydroxy-10-oxo-4b,10-dihydro-9bH-indeno[1,2-b]benzofuran-9b-yl)-6-hydroxypicolinamide], the EC50 stood at 0.068 µM with HRV A16; 0.035 µM in the data set on HRV A29; 5.33 µM in the data set with C15_C3 REPLICON; 0.016 µM in the data set with HRV B14; 0.031 µM in the data set on HRV A1B. Also, the CC50 in data set [1] worked out at 35 µM.
Take `Cc1cc(S(C)(=O)=O)[nH]c1C(=O)NC12C(=O)c3c(N)cccc3C1(O)Oc1cc([C@@H]3C[C@@H]3C)ccc12` (stereo partly drawn) [Example 26, N-(1-amino-4b-hydroxy-7-((1R,2S)-2-methylcyclopropyl)-10-oxo-4b,10-dihydro-9bH-indeno[1,2-b]benzofuran-9b-yl)-3-methyl-5-(methylsulfonyl)-1H-pyrrole-2-carboxamide]: the EC50 in the data set on HRV A16 was 0.093 µM; with HRV A29 it was 0.274 µM; with C15_C3 REPLICON, 8.37 µM; in the data set on HRV B14, 0.016 µM; in the data set on HRV A1B, 0.17 µM. The CC50 in data set [1] was found to be 37.1 µM.
With `C[C@H](c1ccc2c(c1)O[C@]1(O)c3cccc(N)c3C(=O)[C@]21NC(=O)CN1CCC1)C1CC1` [Example 5, N-((4bR,9bR)-1-amino-7-((S)-1-cyclopropylethyl)-4b-hydroxy-10-oxo-4b,10-dihydro-9bH-indeno[1,2-b]benzofuran-9b-yl)-2-(azetidin-1-yl)acetamide], the EC50 in the data set with HRV A16 was found to be 0.072 µM; in the data set with HRV A29, 0.039 µM; with C15_C3 REPLICON it was 1.35 µM; with HRV B14, 0.016 µM; in the data set on HRV A1B it was 0.036 µM. For the same molecule, the CC50 in data set [1] came to 19.2 µM.
In the case of `Cc1c(S(C)(=O)=O)c[nH]c1C(=O)N[C@]12C(=O)c3c(N)cccc3[C@@]1(O)Oc1cc([C@@H]3C[C@H]3C)ccc12` [Example 1, N-((4bR,9bR)-1-amino-4b-hydroxy-7-((1R,2R)-2-methylcyclopropyl)-10-oxo-4b,10-dihydro-9bH-indeno[1,2-b]benzofuran-9b-yl)-3-methyl-4-(methylsulfonyl)-1H-pyrrole-2-carboxamide], the EC50 came out at 0.228 µM with HRV A16, 0.071 µM with HRV A29, 4 µM in the data set with C15_C3 REPLICON and 0.016 µM with HRV B14. Further, in data set [1], the CC50 came out at 34.7 µM.
